These results are taken from ChEMBL document CHEMBL1140986, “Sidechain-linked inhibitors of HIV-1 protease dimerization” (Bioorg Med Chem, 2009).

Values after ≈ are worked out from the molar mass of the structure shown. Active and inactive are the calls of the source. No cut-off for these calls is given here. Non-standard residues stand in square brackets, D forms with d. Residues, ends and D or L forms follow the SMILES beside them. *: point of attachment. C16 diacid = O=C(O)CCCCCCCCCCCCCCC(=O)*; aThr = C[C@H](O)[C@H](N)C(=O)O

Data set [1] concerns the target T1, Protease (Human immunodeficiency virus 1, UniProt Q9YQ12). Briefly: Inhibition of HIV1 protease dimerization by Zhang-Poorman kinetic assay.
A short description of data set [2]: Solubility in water. In kind it is physicochemical.
Data set [3] concerns the target T1, Protease. Put plainly: Inhibition of HIV1 protease by continuous fluorometric assay.
The target of data set [4] is Protease (Human immunodeficiency virus 1) (UniProt Q9YQ12). Put plainly: Inhibition of HIV1 protease dimerization at 65.3 uM by Zhang-Poorman kinetic assay.
For data set [5] the target is unchanged. Briefly: Binding affinity to HIV1 protease allosteric site at 10 to 50 uM after 1 hr by fluorescence-based cross competition kinetic assay in presence of acetyl-pepstatin.
Data set [6] has the same target. Briefly: Inhibition of HIV1 protease at 130 uM by competitive Lineweaver-Burke plot.
The target in data set [7] is T1, Protease. Briefly: Inhibition of HIV1 protease by competitive inhibition assay.
The target in data set [8] is Protease (Human immunodeficiency virus 1) (UniProt Q9YQ12). Put plainly: Binding affinity to HIV1 protease active site at 10 to 50 uM after 1 hr by fluorescence-based cross competition kinetic assay in presence of acetyl-pepstatin.

A word on the Ki: it is a dissociation constant, usually derived from enzyme kinetics or from competition with a known ligand. Lower therefore signals a stronger hold on the target. What is called solubility is the dissolved amount per volume that the medium holds. High values mean much dissolved substance, low ones little dissolved substance. What is called IC50 is the concentration that inhibits the measured activity by half. A high value points to weaker potency in that assay. On Protease [1], `CCCCCCC(=O)N[C@@H](CSCCOCCOCCSC[C@H](NC(=O)CCCCCC)C(=O)N[C@@H](CC(C)C)C(=O)N[C@@H](Cc1ccccc1)C(N)=O)C(=O)N[C@@H](Cc1ccccc1)C(=O)O` showed a Ki of 1.3 µM. Also, in data set [2], the solubility was 80 µM (≈ 79 µg/mL). Further, the IC50 at Protease [3] was determined as 4 µM.
At Protease [3], `CC(C)C[C@H](NC(=O)[C@H](CSCCOCCOCCSC[C@H](NC(=O)CCc1ccccc1)C(=O)N[C@@H](Cc1ccccc1)C(=O)O)NC(=O)CCc1ccccc1)C(=O)N[C@@H](Cc1ccccc1)C(N)=O` had an IC50 of 6.5 µM.
The same measure, in the same setting: the result for `CC(C)C[C@H](NC(=O)[C@H](CSCCOCCOCCSC[C@H](NC(=O)CCC1CCCCC1)C(=O)N[C@@H](Cc1ccccc1)C(=O)O)NC(=O)CCC1CCCCC1)C(=O)N[C@@H](Cc1ccccc1)C(N)=O` reads 2.5 µM.
With `CC(C)C[C@H](NC(=O)[C@@H](NC(=O)CCCCCCCCCCCCCCC(=O)N[C@@H](CC(N)=O)C(=O)N[C@@H](Cc1ccccc1)C(=O)O)[C@@H](C)O)C(=O)N[C@@H](Cc1ccccc1)C(N)=O` ({Phe-Asn-C16 diacid}-Thr-Leu-Phe-NH2), in data set [2], the concentration in solution (solubility) came to 1 µM (≈ 0.908 µg/mL).
`CC(C)C[C@H](NC(=O)[C@H](CSCCOCCOCCSC[C@H](NC(=O)COc1ccccc1)C(=O)N[C@@H](Cc1ccccc1)C(=O)O)NC(=O)COc1ccccc1)C(=O)N[C@@H](Cc1ccccc1)C(N)=O` came in with a Ki at Protease [1] of 1.25 µM. This molecule also came in with an IC50 at Protease [3] of 2.9 µM.
`CCCCC(=O)N[C@@H](CSCCOCCOCCSC[C@H](NC(=O)CCCC)C(=O)N[C@@H](CC(C)C)C(=O)N[C@@H](Cc1ccccc1)C(N)=O)C(=O)N[C@@H](Cc1ccccc1)C(=O)O` returned a Ki at Protease [1] of 6.8 µM. The molecule also came in with an IC50 against Protease [3] of 50 µM.
On Protease [1], `CC(C)C[C@H](NC(=O)[C@H](CSCCOCCOCCSC[C@H](NC(=O)CCCCC1CCCCC1)C(=O)N[C@@H](Cc1ccccc1)C(=O)O)NC(=O)CCCCC1CCCCC1)C(=O)N[C@@H](Cc1ccccc1)C(N)=O` gave a Ki of 88 µM. The IC50 at Protease [3] was determined as 675 µM.
`CC(C)C[C@H](NC(=O)[C@H](CSCCOCCOCCSC[C@H](NC(=O)C1CCCCC1)C(=O)N[C@@H](Cc1ccccc1)C(=O)O)NC(=O)C1CCCCC1)C(=O)N[C@@H](Cc1ccccc1)C(N)=O` showed an IC50 on Protease [3] of 19.5 µM.
Still for that read-out and setting: to `CC(C)C[C@H](NC(=O)[C@H](CSCCOCCOCCSC[C@H](NC(=O)Cc1ccccc1)C(=O)N[C@@H](Cc1ccccc1)C(=O)O)NC(=O)Cc1ccccc1)C(=O)N[C@@H](Cc1ccccc1)C(N)=O` belongs 2.5 µM.
As for `CC(C)C[C@H](NC(=O)[C@@H](NC(=O)CCCCCCCCCCCCCCC(=O)N[C@@H](CC(N)=O)C(=O)N[C@@H](Cc1ccccc1)C(=O)O)[C@H](C)O)C(=O)N[C@@H](Cc1ccccc1)C(N)=O` ({Phe-Asn-C16 diacid}-[aThr]-Leu-Phe-NH2), at Protease [1], the affinity corresponds to a Ki of 3 µM.
Consider `CC(C)C[C@H](NC(=O)[C@H](CSCCOCCOCCSC[C@H](NC(=O)CC1CCCCC1)C(=O)N[C@@H](Cc1ccccc1)C(=O)O)NC(=O)CC1CCCCC1)C(=O)N[C@@H](Cc1ccccc1)C(N)=O`, for which half-maximal inhibition against Protease [3] (IC50) required 9.5 µM.
`CCCCCCC(=O)N[C@@H](CSCCOCCOCCSC[C@H](NC(=O)CCCCCC)C(=O)N[C@H](C(=O)N[C@@H](Cc1ccccc1)C(N)=O)[C@H](C)CC)C(=O)N[C@@H](Cc1ccccc1)C(=O)O` yielded a Ki at Protease [1] of 510 µM. Moreover, the IC50 against Protease [3] came out at 1.2 µM.
The matching figures for `CCCC(=O)N[C@@H](CSCCOCCOCCSC[C@H](NC(=O)CCC)C(=O)N[C@@H](CC(C)C)C(=O)N[C@@H](Cc1ccccc1)C(N)=O)C(=O)N[C@@H](Cc1ccccc1)C(=O)O`: 8.3 µM and 87 µM.
As to `CCC(=O)N[C@@H](CSCCOCCOCCSC[C@H](NC(=O)CC)C(=O)N[C@@H](CC(C)C)C(=O)N[C@@H](Cc1ccccc1)C(N)=O)C(=O)N[C@@H](Cc1ccccc1)C(=O)O`, the result in data set [4] and in data set [8] was inactive. The result in data set [5] and in data set [6] was Active. On Protease [3], this molecule had an IC50 of 130 µM. On Protease [7], the Ki was 16.9 µM.
Molecule `CC[C@@H](C)[C@H](NC(=O)[C@H](CSCCOCCOCCSC[C@H](NC(=O)CCCCC1CCCCC1)C(=O)N[C@@H](Cc1ccccc1)C(=O)O)NC(=O)CCCCC1CCCCC1)C(=O)N[C@@H](Cc1ccccc1)C(N)=O` yielded a Ki at Protease [1] of 40.1 µM. This molecule also registered an IC50 against Protease [3] of 64 µM.
For the molecule `CCCCCC(=O)N[C@@H](CSCCOCCOCCSC[C@H](NC(=O)CCCCC)C(=O)N[C@@H](CC(C)C)C(=O)N[C@@H](Cc1ccccc1)C(N)=O)C(=O)N[C@@H](Cc1ccccc1)C(=O)O`, the Ki on Protease [1] worked out at 2.3 µM. Moreover, in data set [2], the solubility was 90 µM (≈ 86.3 µg/mL). 14.9 µM corresponded to half-maximal inhibition against Protease [3] (IC50).
